Read-outs that look alike come from different tables or passages of the source.
What was measured:
Format in all cases: cell-based, human
[1] = tested on: T98G cells; assay: MTT cell viability assay in T98G glioblastoma cells; conditions: for IC50: Homo sapiens; for IC50 / percentage of cell viability: T98G cells, MTT; for percentage of cell viability: 40 or 80 μM; for anti-glioblastoma activity (in words): T98G cultures
Description: (§1) T98G cells were isolated from the brain of a glioblastoma multiforme patient (ATCC, cat. No. CRl-1690, RRUD: CVCL-0556, Manassas, VA, USA). HEK 293 cells are derived from human embryonic kidney cells (ATCC Cat# CRL-1573, RRID: CVCL_0045). Both cell lines were grown in Dulbecco’s modified Eagle’s medium (DMEM, Invitrogen) supplemented with 10% fetal serum bovine serum (FBS) at 37 °C according to reference.
(§2) 3 × 10^3 cells were seeded in a 96-well plate and were allowed to attach overnight at 37 °C. T98G cells were treated in duplicate or triplicate with different concentrations of the crude/chemically modified extract or pure compounds. The stock solutions were dissolved in DMSO at the final concentration of 160 mg/ml and 5 or 80 mM for the crude/chemically modified extracts and pure compounds, respectively. After 24 h, 100 μL of DMEM supplemented with 10% of FBS and 10% of 3-(4,5-dimethylthiazol-2-yl)-2,5-diphenyltetrazolium bromide (MTT) reagent (5 mg/mL; Sigma) were added to each well, and plates were further incubated for 2 h at 37 °C as described in references,[36]. Then, 100 μL of DMSO:isopropanol (1:1, v/v) were added to each well followed by incubation for a few minutes at room temperature protected from light. Absorbance was analyzed at 570 nm with a reference at 650 nm in an Epoch Microplate Spectrophotometer. Cells incubated with an equivalent DMSO concentration were considered 100% of viability. The equation “log(inhibitor) vs response—variable slope (four parameters) of the GraphPad Prism software was used to calculate the IC50 (half maximal inhibitory concentration) value.
To evaluate the standard treatment, T98G cultures were treated with temozolomide (5 to 1400 μM). After 72 h, the MTT assay was used to determined cell viability and the IC50 value was calculated as describe above.

[2] = tested on: HEK 293 cells; assay: MTT cell viability assay in non-tumor HEK 293 cells; conditions: for selectivity index: HEK 293 versus T98G
Description: as §1, §2

[3] = tested on: T98G cells; assay: Temporal susceptibility: MTT viability of dexamethasone-synchronized T98G cells; conditions: for viability at 13.6 µM: Homo sapiens, 24 h, read-out: cell viability
Description: T98G cells were seeded at the density of 3 × 10^3 in a 96-well plate and incubated overnight at 37 °C. Cultured cells were synchronized with dexamethasone (100 nM, 1 h at 37 °C) according to reference and then treated with (3) (13.6 μM) or DMSO at different times post-synchronization for 24 h. After incubation, cell viability was measured by MTT assay as described above. Cells incubated with DMSO were considered as 100% of viability.

[4] = pure compounds, 24 h, read-out: IC50

| Compound | IC50 [1, 4] [µM] | percentage of cell viability ([1]; 24 h) | anti-glioblastoma activity (in words) [1] | other results |
| --- | --- | --- | --- | --- |
| C=C1C(=O)O[C@@H]2[C@H]1CC[C@H](C)[C@]1(CCC(=O)O1)[C@@]2(C)O [PsiA, psilostachyin A] | 17.4 | – | – | selectivity index [2]: Only 3 showed a good selectivity index |
| C=C1C(=O)OC2C1CCC(C)=C1CCC(=O)OC12C (stereo not shown) [PsiB, psilostachyin B] | 13.9 | – | – | – |
| Cn1nnc2c(C(N)=O)ncn2c1=O [Temozolomide, reference compound] | – | – | – | IC50 ([1]; standard treatment, 72 h, read-out: IC50): 844 µM |
| CC1=C(/C=C/C(=O)O)[C@]2(C)CC[C@@H](C=C2C(=O)O)C1 [compound 1, (1R,5S)-4-((E)-2-carboxyvinyl)-3,5-dimethylbicyclo[3.2.2]nona-3,6-diene-6-carboxylic acid] | – | higher than 50% | weak anti-glioblastoma activity | – |
| COC(=O)/C=C/C1=C(C)C[C@@H]2C=C(C(=O)OC)[C@@]1(C)CC2 [compound 2, Methyl (1R,5S)-4-((E)-3-methoxy-3-oxoprop-1-en-1-yl)-3,5-dimethylbicyclo[3.2.2]nona-3,6-diene-6-carboxylate] | – | higher than 50% | weak anti-glioblastoma activity | – |
| C=C1C(=O)O[C@H]2C(=C)[C@]3(CCC(=O)O3)[C@@H](C)CC[C@@H]12 [compound 4, (3aS,6S,7S,8aR)-6-methyl-3,8-dimethyleneoctahydro-5'H-spiro[cyclohepta[b]furan-7,2'-furan]-2,5'(3H)-dione] | – | – | less active | IC50 ([1]; 24 h, 10 to 160 µg/mL tested, read-out: concentration needed to reduce 50% of cell viability): > 40 µg/mL |
| C=C1C(=O)OC2C(=C)C(CCC(=O)OC)C(C)CCC12 (stereo not shown) [compound 5] | – | higher than 50% | weak anti-glioblastoma activity | – |
| Methyl 3-((3aS,6S,7S,8aR)-6-methyl-3,8-dimethylene-2-oxooctahydro-2H-cyclohepta[b]furan-7-yl)propanoate [compound 11] | – | higher than 50% | weak anti-glioblastoma activity | – |

Continued, in another order:

| IC50 [1, 4] [µM] | Compound | percentage of cell viability ([1]; 24 h) | anti-glioblastoma activity (in words) [1] | other results |
| --- | --- | --- | --- | --- |
| 14.2 | C=C1C(=O)OC2C1CCC(C)C1CCC(=O)OC12C (stereo not shown) [PsiC, psilostachyin C] | – | – | – |
| 13.6 | C=C1C(=O)O[C@H]2C(=C)[C@@]3(CCC(=O)O3)[C@@H](C)CC[C@@H]12 [compound 3, (3aS,6S,7R,8aR)-6-methyl-3,8-dimethyleneoctahydro-5'H-spiro[cyclohepta[b]furan-7,2'-furan]-2,5'(3H)-dione] | – | most active derivative of the series | selectivity index [2]: good selectivity index; IC50 ([2]; Homo sapiens, HEK293, 24 h, HEK 293 cells, 24 h, MTT): ~39 µM; viability at 13.6 µM ([3]; T98G cells treated at 18 and 24 h post synchronization): 45 to 50%; viability at 13.6 µM ([3]; non-synchronized T98G cells): ~75%; effect of time post synchronization on cell viability ([3]; T98G cells, Kruskal Wallis test): significant effect of time on cell viability |
